The values that follow come from patent US9174964B2, “AMPK-activating piperidinyloxy-substituted 2,3-dihydro-1H-indene-1-amine compounds and pharmaceutical compositions including the same” (Rigel Pharmaceuticals, Inc., priority 2007, dated 2015).

This test has as its target AMPK. Description: AMPK activation, enzyme-linked immunosorbent assay. The format is biochemical. To be noted: ELISA.

SMILES strings stand for the structures. Where a name gives a salt, the structure may show the parent alone.

For the compound `CN(C(=O)c1cc2cc(OC3CCN(c4ccc(C(F)(F)F)cc4)CC3)ccc2o1)C1CCN(C(=O)OC(C)(C)C)CC1` [Compound 102, tert-butyl 4-(N-methyl-5-(1-(4-(trifluoromethyl)phenyl)piperidin-4-yloxy)benzofuran-2-carboxamido)piperidine-1-carboxylate], the EC50 – broadly, the concentration giving half of the maximal effect – (Table 4, AMPK activation) was 1000 to 10000 nM.
On the same count and under the same terms, the same measure for `NC(=O)c1ccc(CN2CCC(Oc3ccc4oc(C(=O)NC5CCN(Cc6ccncc6)CC5)cc4c3)CC2)cc1` [Compound 131, 5-(1-(4-carbamoylbenzyl)piperidin-4-yloxy)-N-(1-(pyridin-4-ylmethyl)piperidin-4-yl)benzofuran-2-carboxamide]: 1000 to 10000 nM; for `CN(C(=O)c1cc2cc(OC3CCN(c4ccc(C(F)(F)F)cc4)CC3)ccc2o1)C1CCNCC1` [Compound 103, N-methyl-N-(piperidin-4-yl)-5-(1-(4-(trifluoromethyl)phenyl)piperidin-4-yloxy)benzofuran-2-carboxamide]: 1000 to 10000 nM.
Turning to `N#Cc1ccc(N2CCC(Oc3ccc(C(=O)NC4CCN(Cc5cccnc5)CC4)nc3)CC2)cc1` [Compound 6, N-(1-(pyridin-3-ylmethyl)piperidin-4-yl)-5-(1-(4-cyanophenyl)piperidin-4-yloxy)picolinamide], the half-maximal effective concentration (EC50) (Table 2, AMPK activation) was 100 to 500 nM.
As to `O=C(NC1CCN(Cc2ccncc2)CC1)c1sc2cc(OC3CCN(c4ccc(C(F)(F)F)cc4)CC3)ccc2c1Cl` [Compound 151, 3-chloro-N-(1-(pyridin-4-ylmethyl)piperidin-4-yl)-6-(1-(4-(trifluoromethyl)phenyl)piperidin-4-yloxy)benzo[b]thiophene-2-carboxamide], the EC50 (Table 5, AMPK activation) is under 100 nM.
For `CC(C)(C)OC(=O)N1CC[C@@H](NC(=O)c2ccc(OC3CCN(c4ccc(C(F)(F)F)cc4)CC3)cn2)C1` [Compound 23, (R)-tert-butyl 3-(5-(1-(4-(trifluoromethyl)phenyl)piperidin-4-yloxy)picolinamido) pyrrolidine-1-carboxylate], where the note is “Table 2, AMPK activation”, the EC50 was in the range of 100 to 500 nM.
`N#Cc1ccc(CN2CCC(NC(=O)c3cc(OC4CCN(c5ccc(C(F)(F)F)cc5)CC4)ccn3)CC2)cc1` [Compound 28, N-(1-(4-cyanobenzyl)piperidin-4-yl)-4-(1-(4-(trifluoromethyl)phenyl)piperidin-4-yloxy)picolinamide] showed an EC50 (Table 2, AMPK activation) of under 100 nM.
`CN(C(=O)c1cc2cc(OC3CCN(c4ccc(C(F)(F)F)cc4)CC3)ccc2o1)C1CCN(Cc2ccc(C#N)cc2)CC1` [Compound 107, N-(1-(4-cyanobenzyl)piperidin-4-yl)-N-methyl-5-(1-(4-(trifluoromethyl)phenyl)piperidin-4-yloxy)benzofuran-2-carboxamide]: the EC50 (Table 4, AMPK activation) is under 100 nM.
For the compound `O=C(NC1CCN(Cc2ccncc2)CC1)c1cc2cc(OC3CCN(Cc4ccc(Cl)cc4)CC3)ccc2s1` [Compound 139, formate salt], for the setting “Table 5, AMPK activation”, the EC50 is under 100 nM.
Turning to `CC(C)(C)OC(=O)N1CCC(NC(=O)c2cc3ccc(OC4CCN(c5ccc(C(F)(F)F)cc5)CC4)cc3s2)CC1` [Compound 140, tert-butyl 4-(6-(1-(4-(trifluoromethyl)phenyl)piperidin-4-yloxy)benzo[b]thiophene-2-carboxamido)piperidine-1-carboxylate], the EC50 (Table 5, AMPK activation) was 500 to 1000 nM.
In the case of `Cc1c(C(=O)NC2CCN(Cc3ccncc3)CC2)oc2cc(OC3CCN(c4ccc(C(F)(F)F)cc4)CC3)ccc12` [Compound 65, 3-methyl-N-(1-(pyridin-4-ylmethyl)piperidin-4-yl)-6-(1-(4-(trifluoromethyl)phenyl)piperidin-4-yloxy)benzofuran-2-carboxamide], the EC50 (Table 4, AMPK activation) is under 100 nM.
Turning to `O=C(N[C@@H]1CCN(Cc2ccc(F)cc2)C1)c1ccc(OC2CCN(c3ccc(C(F)(F)F)cc3)CC2)cn1` [Compound 34, (R)-N-(1-(4-fluorobenzyl)pyrrolidin-3-yl)-5-(1-(4-(trifluoromethyl)phenyl)piperidin-4-yloxy)picolinamide], the EC50 (Table 2, AMPK activation) was in the range of 500 to 1000 nM.
`N#Cc1ccc(CN2CCC(NC(=O)c3cc4ccc(OC5CCN(c6ccc(C(F)(F)F)cc6)CC5)cc4o3)CC2)cc1` [Compound 90, N-(1-(4-cyanobenzyl)piperidin-4-yl)-6-(1-(4-(trifluoromethyl)phenyl)piperidin-4-yloxy)benzofuran-2-carboxamide] registered an EC50 (Table 4, AMPK activation) of under 100 nM.
As for `N#Cc1ccc(CN2CC[C@@H](NC(=O)c3ccc(OC4CCN(c5ccc(C(F)(F)F)cc5)CC4)cn3)C2)cc1` [Compound 33, (R)-N-(1-(4-cyanobenzyl)pyrrolidin-3-yl)-5-(1-(4-(trifluoromethyl)phenyl)piperidin-4-yloxy)picolinamide], for the setting “Table 2, AMPK activation”, the half-maximal effective concentration (EC50) is 500 to 1000 nM.
`N#Cc1ccc(CN2CCC(Oc3ccc4oc(C(=O)NC5CCN(Cc6ccncc6)CC5)cc4c3)CC2)cc1` [Compound 79, 5-(1-(4-cyanobenzyl)piperidin-4-yloxy)-N-(1-(pyridin-4-ylmethyl)piperidin-4-yl)benzofuran-2-carboxamide] gave a concentration for a half-maximal effect (EC50) (Table 4, AMPK activation) of 100 to 500 nM.
`CC(C)(C)OC(=O)N1CC[C@H](NC(=O)c2cc3cc(OC4CCN(Cc5ccc(Cl)cc5)CC4)ccc3o2)C1` [Compound 127, (S)-tert-butyl 3-(5-(1-(4-chlorobenzyl)piperidin-4-yloxy)benzofuran-2-carboxamido)pyrrolidine-1-carboxylate]: the concentration giving a half-maximal response (EC50) (Table 4, AMPK activation) fell in the range of 1000 to 10000 nM.
As for `O=C(NC1CCNCC1)c1cc2cc(OC3CCN(c4ccc(C(F)(F)F)cc4)CC3)ccc2o1` [Compound 86, N-(piperidin-4-yl)-5-(1-(4-(trifluoromethyl)phenyl)piperidin-4-yloxy)benzofuran-2-carboxamide hydrochloride], the EC50 (Table 4, AMPK activation) is over 50000 nM.
As to `O=C(NC1CCN(Cc2ccncc2)CC1)c1cc2cc(OC3CCN(c4ccc(C(F)(F)F)cc4)CC3)ccc2o1` [Compound 105, N-(1-(pyridin-4-ylmethyl)piperidin-4-yl)-5-(1-(4-(trifluoromethyl)phenyl)piperidin-4-yloxy)benzofuran-2-carboxamide, formate salt], the concentration for a half-maximal effect (EC50) (Table 4, AMPK activation, formate salt) is under 100 nM.
Where the note is “Table 4, AMPK activation”, `Cc1c(C(=O)NC2CCN(Cc3ccc(C#N)cc3)CC2)oc2cc(OC3CCN(c4ccc(C(F)(F)F)cc4)CC3)ccc12` [Compound 64, N-(1-(4-cyanobenzyl)piperidin-4-yl)-3-methyl-6-(1-(4-(trifluoromethyl)phenyl)piperidin-4-yloxy)benzofuran-2-carboxamide] came in with an EC50 of under 100 nM.
In turn, `CC(C)(C)OC(=O)N1CCC(NC(=O)c2cc(OC3CCN(c4ccc(C(F)(F)F)cc4)CC3)ccn2)CC1` [Compound 12, tert-butyl 4-(4-(1-(4-(trifluoromethyl)phenyl)piperidin-4-yloxy)picolinamido) piperidine-1-carboxylate] registered a concentration giving a half-maximal response (EC50) (Table 2, AMPK activation) of 500 to 1000 nM.
Compound `CN(C(=O)c1cc2cc(OC3CCN(c4ccc(C(F)(F)F)cc4)CC3)ccc2o1)C1CCN(Cc2cccnc2)CC1` [Compound 109, N-methyl-N-(1-(pyridin-3-ylmethyl)piperidin-4-yl)-5-(1-(4-(trifluoromethyl)phenyl)piperidin-4-yloxy)benzofuran-2-carboxamide] displayed an EC50 (Table 4, AMPK activation) of under 100 nM.
`CC(C)(C)OC(=O)N1CC[C@H](NC(=O)c2ccc(OC3CCN(c4ccc(C(F)(F)F)cc4)CC3)cn2)C1` [Compound 26, (S)-tert-butyl 3-(5-(1-(4-(trifluoromethyl)phenyl)piperidin-4-yloxy)picolinamido) pyrrolidine-1-carboxylate] displayed an EC50 (Table 2, AMPK activation) of 100 to 500 nM.
Consider `O=C(NC1CCN(S(=O)(=O)c2cccnc2)CC1)c1cc2ccc(OC3CCN(c4ccc(OC(F)(F)F)cc4)CC3)cc2o1` [Compound 108, N-(1-(pyridin-3-ylsulfonyl)piperidin-4-yl)-6-(1-(4-(trifluoromethoxy)phenyl)piperidin-4-yloxy)benzofuran-2-carboxamide], for which the EC50 (Table 4, AMPK activation) was 100 to 500 nM.
The compound `CC(C)(C)OC(=O)N1CCC(NC(=O)c2cc3cc(OC4CCN(Cc5ccc(C#N)cc5)CC4)ccc3o2)CC1` [Compound 113, tert-butyl 4-(5-(1-(4-cyanobenzyl)piperidin-4-yloxy)benzofuran-2-carboxamido)piperidine-1-carboxylate] displayed an EC50 (Table 4, AMPK activation) of 100 to 500 nM.
For the compound `N#Cc1ccc(CN2CCC(NC(=O)c3ccnc(OC4CCN(c5ccc(C(F)(F)F)cc5)CC4)c3)CC2)cc1` [Compound 21, N-(1-(4-cyanobenzyl)piperidin-4-yl)-2-(1-(4-(trifluoromethyl)phenyl)piperidin-4-yloxy)isonicotinamide], the concentration giving a half-maximal response (EC50) (Table 2, AMPK activation) fell in the range of 100 to 500 nM.
For the setting “Table 2, AMPK activation”, `O=C(NC1CCN(Cc2ccc(F)cc2)CC1)c1ccc(OC2CCN(c3ccc(C(F)(F)F)cc3)CC2)nc1` [Compound 11, N-(1-(4-fluorobenzyl)piperidin-4-yl)-6-(1-(4-(trifluoromethyl)phenyl)piperidin-4-yloxy)nicotinamide] had an EC50 of under 100 nM.
For `N#Cc1ccccc1CN1CCC(NC(=O)c2cc3ccc(OC4CCN(c5ccc(OC(F)(F)F)cc5)CC4)cc3o2)CC1` [Compound 97, N-(1-(2-cyanobenzyl)piperidin-4-yl)-6-(1-(4-(trifluoromethoxy)phenyl)piperidin-4-yloxy)benzofuran-2-carboxamide], the EC50 (Table 4, AMPK activation) was under 100 nM.
`O=C(NC1CCN(C(=O)c2ccncc2)CC1)c1sc2cc(OC3CCN(c4ccc(C(F)(F)F)cc4)CC3)ccc2c1Cl` [Compound 155, 3-chloro-N-(1-isonicotinoylpiperidin-4-yl)-6-(1-(4-(trifluoromethyl)phenyl)piperidin-4-yloxy)benzo[b]thiophene-2-carboxamide] showed an EC50 (Table 5, AMPK activation) of under 100 nM.
`O=C(NC1CCN(Cc2cccnc2)CC1)c1cc2ccc(OC3CCN(c4ccc(C(F)(F)F)cc4)CC3)cc2o1` [Compound 96, N-(1-(pyridin-3-ylmethyl)piperidin-4-yl)-6-(1-(4-(trifluoromethyl)phenyl)piperidin-4-yloxy)benzofuran-2-carboxamide] gave a concentration for a half-maximal effect (EC50) (Table 4, AMPK activation) of under 100 nM.
With `Fc1ccc(CN2CCC(NC3CCc4cc(OC5CCN(c6ccc(C(F)(F)F)cc6)CC5)ccc43)CC2)cc1` (stereo not drawn) [Compound 159, 1-(4-fluorobenzyl)-N-(5-(1-(4-(trifluoromethyl)phenyl)piperidin-4-yloxy)-2,3-dihydro-1H-inden-1-yl)piperidin-4-amine], the half-maximal effective concentration (EC50) (Table 6, AMPK activation) lay within 500 to 1000 nM.
